Experimental data: patent US9492471B2, “Methods of treating a disease or disorder associated with Bruton'S Tyrosine Kinase” (Celgene Avilomics Research, Inc., priority 2013, dated 2016)
Like-named read-outs stand apart in the source and are kept apart here.

Experiments:
Assay in all cases: HotSpot kinase profiling
Type in all cases: biochemical
[1] = target: T1, Aurora C (Homo sapiens, UniProt Q9UQB9)
T1 construct: purchased Reaction Biology Corp
T1 sequence (Q9UQB9 1-309): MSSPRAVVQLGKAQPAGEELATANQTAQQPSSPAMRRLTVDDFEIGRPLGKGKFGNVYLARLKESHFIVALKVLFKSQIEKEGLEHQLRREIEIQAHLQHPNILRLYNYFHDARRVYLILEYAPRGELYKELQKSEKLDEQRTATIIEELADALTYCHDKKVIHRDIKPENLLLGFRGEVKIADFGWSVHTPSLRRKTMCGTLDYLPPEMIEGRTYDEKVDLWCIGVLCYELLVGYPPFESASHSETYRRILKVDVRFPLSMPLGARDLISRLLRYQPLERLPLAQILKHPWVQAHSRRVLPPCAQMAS
How it was run: (§1)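 Activity is measured by radiolabel transfer captured on P81 filters after a 2 h room-temperature reaction of kinase, substrate and cofactors. Values are percent inhibition against DMSO.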

[2] = target: T2, CDK2/cyclin A1 (Homo sapiens, UniProt P24941)
T2 construct: purchased Reaction Biology Corp
How it was run: as §1

[3] = target: T3, CK2a2 (Homo sapiens, UniProt P19784)
T3 construct: purchased Reaction Biology Corp
T3 sequence (P19784 whole entry): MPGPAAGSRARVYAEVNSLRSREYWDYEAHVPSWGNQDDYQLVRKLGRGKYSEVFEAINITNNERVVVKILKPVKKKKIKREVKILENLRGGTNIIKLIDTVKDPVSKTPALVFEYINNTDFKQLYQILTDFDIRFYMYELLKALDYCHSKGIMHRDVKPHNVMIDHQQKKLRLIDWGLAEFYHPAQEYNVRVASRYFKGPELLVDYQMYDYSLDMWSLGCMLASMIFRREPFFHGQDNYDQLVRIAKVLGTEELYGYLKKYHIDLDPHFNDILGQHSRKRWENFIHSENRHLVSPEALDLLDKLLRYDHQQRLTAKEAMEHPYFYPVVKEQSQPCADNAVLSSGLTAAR
How it was run: as §1

[4] = target: T4, ERBB4/HER4 (Homo sapiens, UniProt Q15303)
T4 construct: purchased Reaction Biology Corp
T4 sequence (Q15303 26-1308): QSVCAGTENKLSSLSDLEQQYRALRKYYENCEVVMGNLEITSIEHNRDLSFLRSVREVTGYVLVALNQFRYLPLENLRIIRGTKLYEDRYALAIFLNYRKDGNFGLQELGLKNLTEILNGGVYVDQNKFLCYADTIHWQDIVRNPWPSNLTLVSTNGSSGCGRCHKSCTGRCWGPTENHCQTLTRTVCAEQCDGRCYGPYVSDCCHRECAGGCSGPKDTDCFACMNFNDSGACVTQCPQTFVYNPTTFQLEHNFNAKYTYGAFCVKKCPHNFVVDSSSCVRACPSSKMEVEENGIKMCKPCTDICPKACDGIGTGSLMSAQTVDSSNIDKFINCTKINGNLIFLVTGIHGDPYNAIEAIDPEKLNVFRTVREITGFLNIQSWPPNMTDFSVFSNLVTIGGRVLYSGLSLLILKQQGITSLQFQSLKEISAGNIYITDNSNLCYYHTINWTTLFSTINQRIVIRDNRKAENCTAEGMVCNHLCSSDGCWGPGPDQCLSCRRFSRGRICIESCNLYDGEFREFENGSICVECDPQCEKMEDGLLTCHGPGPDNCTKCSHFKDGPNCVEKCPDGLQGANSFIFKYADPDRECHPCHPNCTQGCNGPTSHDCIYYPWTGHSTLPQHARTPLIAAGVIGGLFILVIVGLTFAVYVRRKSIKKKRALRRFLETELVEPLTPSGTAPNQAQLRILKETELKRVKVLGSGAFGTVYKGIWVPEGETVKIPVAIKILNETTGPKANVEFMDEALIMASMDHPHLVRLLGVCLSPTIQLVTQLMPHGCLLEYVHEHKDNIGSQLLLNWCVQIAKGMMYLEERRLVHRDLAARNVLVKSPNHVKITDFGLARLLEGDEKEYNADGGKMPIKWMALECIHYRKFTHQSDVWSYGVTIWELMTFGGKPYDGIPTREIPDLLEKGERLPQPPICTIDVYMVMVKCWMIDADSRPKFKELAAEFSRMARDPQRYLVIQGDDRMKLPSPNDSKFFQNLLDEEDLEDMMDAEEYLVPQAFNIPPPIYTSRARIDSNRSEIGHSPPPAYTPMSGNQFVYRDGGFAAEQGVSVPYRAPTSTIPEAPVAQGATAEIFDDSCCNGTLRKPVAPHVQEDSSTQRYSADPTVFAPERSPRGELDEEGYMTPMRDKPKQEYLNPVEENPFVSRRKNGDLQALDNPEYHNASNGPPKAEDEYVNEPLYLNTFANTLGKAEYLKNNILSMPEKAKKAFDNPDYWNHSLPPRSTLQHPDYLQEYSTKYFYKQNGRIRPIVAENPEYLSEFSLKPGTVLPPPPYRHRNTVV
How it was run: as §1

[5] = target: T5, ERK5/MAPK7 (Homo sapiens, UniProt Q13164)
T5 construct: purchased Reaction Biology Corp
T5 sequence (Q13164 whole entry): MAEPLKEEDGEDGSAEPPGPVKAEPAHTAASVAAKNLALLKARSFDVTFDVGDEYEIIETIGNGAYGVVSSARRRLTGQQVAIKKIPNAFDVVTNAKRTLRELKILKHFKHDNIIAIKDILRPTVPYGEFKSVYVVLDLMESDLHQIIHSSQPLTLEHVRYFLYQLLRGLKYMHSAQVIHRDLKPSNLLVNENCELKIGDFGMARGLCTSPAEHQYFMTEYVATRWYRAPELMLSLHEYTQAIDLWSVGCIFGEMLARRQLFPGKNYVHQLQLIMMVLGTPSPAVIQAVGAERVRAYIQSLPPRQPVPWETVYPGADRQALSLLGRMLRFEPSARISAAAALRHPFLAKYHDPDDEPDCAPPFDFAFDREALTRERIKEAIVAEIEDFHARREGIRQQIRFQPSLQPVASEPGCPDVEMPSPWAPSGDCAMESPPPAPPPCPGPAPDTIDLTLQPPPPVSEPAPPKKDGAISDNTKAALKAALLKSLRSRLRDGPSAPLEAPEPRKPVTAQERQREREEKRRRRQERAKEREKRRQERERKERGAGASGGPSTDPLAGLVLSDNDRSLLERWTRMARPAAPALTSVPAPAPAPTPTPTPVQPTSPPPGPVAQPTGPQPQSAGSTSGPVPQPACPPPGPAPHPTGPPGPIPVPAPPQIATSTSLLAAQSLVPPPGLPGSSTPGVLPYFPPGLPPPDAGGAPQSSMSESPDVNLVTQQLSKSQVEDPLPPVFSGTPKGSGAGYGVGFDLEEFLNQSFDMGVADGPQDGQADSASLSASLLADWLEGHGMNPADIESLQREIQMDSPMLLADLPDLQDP
How it was run: as §1

[6] = target: T6, FGR (Homo sapiens, UniProt P09769)
T6 construct: purchased Reaction Biology Corp
T6 sequence (P09769 whole entry): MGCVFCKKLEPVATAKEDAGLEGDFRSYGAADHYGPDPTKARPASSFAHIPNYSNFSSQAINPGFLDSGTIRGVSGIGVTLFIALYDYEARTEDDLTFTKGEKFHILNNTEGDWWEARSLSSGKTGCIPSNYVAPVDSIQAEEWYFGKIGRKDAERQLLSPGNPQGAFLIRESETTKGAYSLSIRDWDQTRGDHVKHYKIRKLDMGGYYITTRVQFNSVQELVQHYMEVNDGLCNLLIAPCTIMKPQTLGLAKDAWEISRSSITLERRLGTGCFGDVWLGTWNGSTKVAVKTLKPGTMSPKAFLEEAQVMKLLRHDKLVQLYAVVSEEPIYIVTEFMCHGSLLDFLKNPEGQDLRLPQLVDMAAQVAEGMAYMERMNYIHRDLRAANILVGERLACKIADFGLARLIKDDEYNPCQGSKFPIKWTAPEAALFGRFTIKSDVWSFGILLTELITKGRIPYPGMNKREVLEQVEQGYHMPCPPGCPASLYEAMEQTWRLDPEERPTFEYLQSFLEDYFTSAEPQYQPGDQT
How it was run: as §1

[7] = target: T7, GRK7 (Homo sapiens, UniProt Q8WTQ7)
T7 construct: purchased Reaction Biology Corp
T7 sequence (Q8WTQ7 1-553): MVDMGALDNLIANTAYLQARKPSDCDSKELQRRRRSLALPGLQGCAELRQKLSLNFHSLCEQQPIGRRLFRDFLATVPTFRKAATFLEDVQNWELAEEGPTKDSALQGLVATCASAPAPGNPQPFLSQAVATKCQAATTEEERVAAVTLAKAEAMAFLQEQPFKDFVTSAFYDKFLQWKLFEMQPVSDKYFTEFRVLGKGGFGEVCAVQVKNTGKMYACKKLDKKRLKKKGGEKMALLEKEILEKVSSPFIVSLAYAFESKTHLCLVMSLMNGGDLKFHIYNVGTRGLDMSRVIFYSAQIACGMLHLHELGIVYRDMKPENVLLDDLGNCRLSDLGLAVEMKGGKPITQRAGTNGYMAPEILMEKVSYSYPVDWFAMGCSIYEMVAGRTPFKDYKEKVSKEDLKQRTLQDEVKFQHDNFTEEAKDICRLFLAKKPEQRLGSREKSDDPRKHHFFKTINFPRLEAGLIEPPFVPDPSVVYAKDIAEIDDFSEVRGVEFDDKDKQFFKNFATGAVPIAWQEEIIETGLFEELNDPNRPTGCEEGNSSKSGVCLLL
How it was run: as §1

[8] = target: T8, HIPK4 (Homo sapiens, UniProt Q8NE63)
T8 construct: purchased Reaction Biology Corp
T8 sequence (Q8NE63 1-616): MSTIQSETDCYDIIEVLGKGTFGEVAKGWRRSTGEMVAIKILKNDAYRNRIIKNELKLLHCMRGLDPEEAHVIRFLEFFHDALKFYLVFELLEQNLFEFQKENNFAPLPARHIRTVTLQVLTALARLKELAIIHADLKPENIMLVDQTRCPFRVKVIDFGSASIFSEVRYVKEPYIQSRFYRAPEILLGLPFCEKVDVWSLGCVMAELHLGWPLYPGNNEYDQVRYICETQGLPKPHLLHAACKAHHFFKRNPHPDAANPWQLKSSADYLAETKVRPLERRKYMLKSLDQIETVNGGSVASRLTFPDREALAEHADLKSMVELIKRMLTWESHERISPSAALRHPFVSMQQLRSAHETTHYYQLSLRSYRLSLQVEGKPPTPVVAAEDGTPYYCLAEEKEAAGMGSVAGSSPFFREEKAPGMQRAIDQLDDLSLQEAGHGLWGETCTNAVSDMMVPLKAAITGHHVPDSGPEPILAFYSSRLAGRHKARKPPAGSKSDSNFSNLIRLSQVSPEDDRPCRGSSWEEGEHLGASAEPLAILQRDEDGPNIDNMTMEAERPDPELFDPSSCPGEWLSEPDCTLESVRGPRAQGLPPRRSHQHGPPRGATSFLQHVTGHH
How it was run: as §1

[9] = target: T9, IGF1R (Homo sapiens, UniProt P08069)
T9 construct: purchased Reaction Biology Corp
T9 sequence (P08069 31-1367): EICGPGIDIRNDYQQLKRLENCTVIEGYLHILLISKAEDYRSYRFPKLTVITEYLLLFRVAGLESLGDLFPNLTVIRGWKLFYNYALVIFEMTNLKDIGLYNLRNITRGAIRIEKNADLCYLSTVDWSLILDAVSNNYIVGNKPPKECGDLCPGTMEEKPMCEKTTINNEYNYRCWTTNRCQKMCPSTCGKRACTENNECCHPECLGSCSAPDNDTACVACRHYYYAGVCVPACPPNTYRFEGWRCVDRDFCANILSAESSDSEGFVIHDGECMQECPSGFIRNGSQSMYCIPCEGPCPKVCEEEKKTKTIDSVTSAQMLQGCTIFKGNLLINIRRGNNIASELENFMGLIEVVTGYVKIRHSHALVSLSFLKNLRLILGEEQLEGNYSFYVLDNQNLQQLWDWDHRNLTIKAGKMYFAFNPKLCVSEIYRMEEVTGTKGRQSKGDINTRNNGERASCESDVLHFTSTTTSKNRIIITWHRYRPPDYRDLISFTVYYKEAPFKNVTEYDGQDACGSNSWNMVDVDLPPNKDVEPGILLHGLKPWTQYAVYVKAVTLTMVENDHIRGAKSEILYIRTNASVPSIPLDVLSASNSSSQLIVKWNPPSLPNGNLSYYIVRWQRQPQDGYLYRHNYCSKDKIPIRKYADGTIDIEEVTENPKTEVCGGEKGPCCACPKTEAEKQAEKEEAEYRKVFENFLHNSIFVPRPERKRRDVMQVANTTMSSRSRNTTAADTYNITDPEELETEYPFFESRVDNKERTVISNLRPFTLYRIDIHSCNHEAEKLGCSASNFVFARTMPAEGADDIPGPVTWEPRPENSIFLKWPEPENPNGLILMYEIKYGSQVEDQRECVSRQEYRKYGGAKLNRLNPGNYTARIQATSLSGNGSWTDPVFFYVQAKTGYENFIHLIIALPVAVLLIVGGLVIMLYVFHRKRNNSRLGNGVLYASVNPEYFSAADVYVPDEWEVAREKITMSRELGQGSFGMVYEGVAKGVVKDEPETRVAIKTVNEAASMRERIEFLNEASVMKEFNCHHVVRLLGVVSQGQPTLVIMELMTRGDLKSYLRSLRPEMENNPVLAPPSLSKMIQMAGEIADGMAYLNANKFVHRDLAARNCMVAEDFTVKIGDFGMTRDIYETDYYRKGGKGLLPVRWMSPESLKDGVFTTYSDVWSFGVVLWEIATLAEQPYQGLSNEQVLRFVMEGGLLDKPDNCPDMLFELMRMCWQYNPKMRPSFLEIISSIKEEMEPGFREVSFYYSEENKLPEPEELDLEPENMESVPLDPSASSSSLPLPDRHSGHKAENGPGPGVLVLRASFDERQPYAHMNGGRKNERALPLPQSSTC
How it was run: as §1

[10] = target: T10, PAK6 (Homo sapiens, UniProt Q9NQU5)
T10 construct: purchased Reaction Biology Corp
T10 sequence (Q9NQU5 whole entry): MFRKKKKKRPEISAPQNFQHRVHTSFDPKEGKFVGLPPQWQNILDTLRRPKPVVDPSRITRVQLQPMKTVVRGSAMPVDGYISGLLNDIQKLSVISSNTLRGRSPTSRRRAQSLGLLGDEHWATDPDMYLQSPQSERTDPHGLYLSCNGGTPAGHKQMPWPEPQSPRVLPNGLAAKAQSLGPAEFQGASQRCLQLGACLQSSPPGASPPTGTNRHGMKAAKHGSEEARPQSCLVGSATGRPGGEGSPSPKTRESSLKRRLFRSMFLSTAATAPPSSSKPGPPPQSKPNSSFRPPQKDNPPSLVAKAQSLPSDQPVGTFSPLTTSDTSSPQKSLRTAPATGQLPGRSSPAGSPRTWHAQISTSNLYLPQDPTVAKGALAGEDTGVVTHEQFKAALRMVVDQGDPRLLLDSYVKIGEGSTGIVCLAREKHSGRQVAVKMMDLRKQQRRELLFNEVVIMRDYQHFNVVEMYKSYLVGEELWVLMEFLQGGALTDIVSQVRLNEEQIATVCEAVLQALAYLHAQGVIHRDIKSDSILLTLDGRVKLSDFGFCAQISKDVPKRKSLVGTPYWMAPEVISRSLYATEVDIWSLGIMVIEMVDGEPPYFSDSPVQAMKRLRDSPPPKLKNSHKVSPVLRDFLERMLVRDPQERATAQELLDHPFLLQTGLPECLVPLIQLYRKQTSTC
How it was run: as §1

[11] = target: T11, SYK (Homo sapiens, UniProt P43405)
T11 construct: purchased Reaction Biology Corp

[12] = read-out: % Enzyme Activity (relative to DMSO controls) Run 1
[13] = read-out: % Enzyme Activity (relative to DMSO controls) Run 2

## C=CC(=O)Nc1cccc(Nc2nc(Nc3ccc(OCCOC)c(F)c3)ncc2F)c1 [Compound 2]
[1]
  inhibition at 3 µM: 72%
[1]; [12]
  remaining activity at 3 µM: 26.2%
[1]; [13]
  remaining activity at 3 µM: 29.8%
[2]
  inhibition at 3 µM: 22%
[2]; [12]
  remaining activity at 3 µM: 78.2%
[2]; [13]
  remaining activity at 3 µM: 77.7%
[3]
  inhibition at 3 µM: -1.81%
[3]; [12]
  remaining activity at 3 µM: 98.2%
[3]; [13]
  remaining activity at 3 µM: 105%
[4]
  inhibition at 3 µM: 91.3%
[4]; [12]
  remaining activity at 3 µM: 9.15%
[4]; [13]
  remaining activity at 3 µM: 8.32%
[5]
  inhibition at 3 µM: -0.37%
[5]; [12]
  remaining activity at 3 µM: 101%
[5]; [13]
  remaining activity at 3 µM: 99.9%
[6]
  inhibition at 3 µM: 59.9%
[6]; [12]
  remaining activity at 3 µM: 39.7%
[6]; [13]
  remaining activity at 3 µM: 40.5%
[7]
  inhibition at 3 µM: 9.96%
[7]; [12]
  remaining activity at 3 µM: 89.1%
[7]; [13]
  remaining activity at 3 µM: 90.9%
[8]
  inhibition at 3 µM: 6.31%
[8]; [12]
  remaining activity at 3 µM: 93.6%
[8]; [13]
  remaining activity at 3 µM: 93.8%
[9]
  inhibition at 3 µM: 15.6%
[9]; [12]
  remaining activity at 3 µM: 82.8%
[9]; [13]
  remaining activity at 3 µM: 86%
[10]
  inhibition at 3 µM: 18%
[10]; [12]
  remaining activity at 3 µM: 79.3%
[10]; [13]
  remaining activity at 3 µM: 84.8%
[11]
  inhibition at 3 µM: 22.4%
[11]; [12]
  remaining activity at 3 µM: 78%
[11]; [13]
  remaining activity at 3 µM: 77.1%
